We go through two substances from paper PMC7429354, “Potentiating TMEM16A does not stimulate airway mucus secretion or bronchial and pulmonary arterial smooth muscle contraction” (FASEB BioAdvances, 2020).

Broadly, the EC50 is the concentration giving half of the maximal effect.

The target in test [1] is T1, TMEM16A (Rattus norvegicus, UniProt D4A915).
T1 construct: gene Ano1; full-length (NM_01107564.1), stably expressed in a cell line
T1 sequence (D4A915 1-1105): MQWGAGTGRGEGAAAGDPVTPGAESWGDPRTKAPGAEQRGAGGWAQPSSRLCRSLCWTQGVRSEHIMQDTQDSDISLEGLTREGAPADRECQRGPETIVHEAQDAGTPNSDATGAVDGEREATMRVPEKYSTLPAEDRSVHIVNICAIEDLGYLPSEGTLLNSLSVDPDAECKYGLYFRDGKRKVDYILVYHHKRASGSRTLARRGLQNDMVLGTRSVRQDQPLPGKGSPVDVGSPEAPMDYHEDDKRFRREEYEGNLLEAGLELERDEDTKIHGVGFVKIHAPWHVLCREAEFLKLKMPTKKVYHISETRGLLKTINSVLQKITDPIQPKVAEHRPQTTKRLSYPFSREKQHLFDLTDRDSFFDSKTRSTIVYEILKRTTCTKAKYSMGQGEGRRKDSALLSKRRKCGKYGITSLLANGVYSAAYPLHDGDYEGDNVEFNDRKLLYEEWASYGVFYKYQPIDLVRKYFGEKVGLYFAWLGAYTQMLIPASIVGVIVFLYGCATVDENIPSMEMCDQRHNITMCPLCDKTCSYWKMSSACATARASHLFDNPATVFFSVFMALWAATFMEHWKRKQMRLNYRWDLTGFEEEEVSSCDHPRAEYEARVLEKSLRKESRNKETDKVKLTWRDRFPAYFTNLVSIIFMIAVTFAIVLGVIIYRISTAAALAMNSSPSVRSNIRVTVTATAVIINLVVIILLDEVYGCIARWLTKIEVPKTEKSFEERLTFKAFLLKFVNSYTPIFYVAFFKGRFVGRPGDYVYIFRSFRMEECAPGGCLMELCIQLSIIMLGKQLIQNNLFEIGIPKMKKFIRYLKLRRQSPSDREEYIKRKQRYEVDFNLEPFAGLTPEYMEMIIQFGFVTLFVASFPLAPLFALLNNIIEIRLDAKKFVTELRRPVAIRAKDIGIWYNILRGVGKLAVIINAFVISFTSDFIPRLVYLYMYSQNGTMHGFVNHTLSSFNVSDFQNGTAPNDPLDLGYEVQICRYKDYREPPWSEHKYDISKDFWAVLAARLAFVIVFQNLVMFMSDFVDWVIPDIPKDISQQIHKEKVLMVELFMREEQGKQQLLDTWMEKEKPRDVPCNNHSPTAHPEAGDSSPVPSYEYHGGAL
Put plainly: QPatch automated whole-cell patch clamp, recombinant channel (potentiator, maximum […] efficacy). In kind it is cell-based. (In patch-clamp work, channel activity is measured electrically.)

In test [2] the target is T2, TMEM16A (Mus musculus, UniProt Q8BHY3).
T2 construct: gene Ano1; full-length (NM_178642.5), stably expressed in CHO cells
T2 sequence (Q8BHY3 1-960): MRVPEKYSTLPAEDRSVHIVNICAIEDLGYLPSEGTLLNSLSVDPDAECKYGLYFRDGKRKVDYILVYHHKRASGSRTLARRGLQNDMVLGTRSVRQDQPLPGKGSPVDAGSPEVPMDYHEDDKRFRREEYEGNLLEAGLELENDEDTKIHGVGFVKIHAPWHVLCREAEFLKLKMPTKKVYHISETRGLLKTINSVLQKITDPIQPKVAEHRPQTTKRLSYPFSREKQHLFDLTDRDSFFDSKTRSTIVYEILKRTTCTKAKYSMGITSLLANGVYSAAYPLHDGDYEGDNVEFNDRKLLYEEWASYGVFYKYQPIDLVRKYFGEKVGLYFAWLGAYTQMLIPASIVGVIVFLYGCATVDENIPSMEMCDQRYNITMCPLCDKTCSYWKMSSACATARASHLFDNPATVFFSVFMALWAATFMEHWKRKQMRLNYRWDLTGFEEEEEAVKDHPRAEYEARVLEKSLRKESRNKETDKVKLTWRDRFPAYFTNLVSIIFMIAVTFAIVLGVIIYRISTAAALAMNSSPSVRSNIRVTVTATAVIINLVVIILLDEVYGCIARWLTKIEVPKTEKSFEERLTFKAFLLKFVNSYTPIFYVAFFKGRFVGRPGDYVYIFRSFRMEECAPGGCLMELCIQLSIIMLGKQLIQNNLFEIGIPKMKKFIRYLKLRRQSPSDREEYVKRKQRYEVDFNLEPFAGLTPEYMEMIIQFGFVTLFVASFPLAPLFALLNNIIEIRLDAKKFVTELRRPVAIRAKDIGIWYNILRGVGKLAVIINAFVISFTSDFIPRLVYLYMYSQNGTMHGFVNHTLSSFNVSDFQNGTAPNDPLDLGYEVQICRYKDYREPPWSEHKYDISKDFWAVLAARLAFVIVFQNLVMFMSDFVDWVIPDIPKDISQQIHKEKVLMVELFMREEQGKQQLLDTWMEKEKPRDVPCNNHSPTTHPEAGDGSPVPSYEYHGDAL
The test is described as above. In kind it is cell-based.

ETX001: the EC50 in test [1] came out at 88 nM. Turning to ETX004, the EC50 in test [2] turned out to be 38 nM.
